Entries after “also recorded” stand apart in the source; their conditions may differ. One block for each molecule: values may come before it.
Legend:
[1] = target: T1, chick Engrailed-2 protein (Gallus gallus, UniProt Q05917); test: Effect of peptides on activation of the MAP1B promoter by Engrailed-2 in CHP100 cells (luciferase); assay type: cell-based; conditions: for effect on the activation of MAP1B by Engrailed (in words): peptide + En2 cotransfected
T1 construct: expressed in transfected cells; host or cells: CHP100 neuroepithelial cell line, electroporated with pCL9mEn2
T1 sequence (Q05917 1-289): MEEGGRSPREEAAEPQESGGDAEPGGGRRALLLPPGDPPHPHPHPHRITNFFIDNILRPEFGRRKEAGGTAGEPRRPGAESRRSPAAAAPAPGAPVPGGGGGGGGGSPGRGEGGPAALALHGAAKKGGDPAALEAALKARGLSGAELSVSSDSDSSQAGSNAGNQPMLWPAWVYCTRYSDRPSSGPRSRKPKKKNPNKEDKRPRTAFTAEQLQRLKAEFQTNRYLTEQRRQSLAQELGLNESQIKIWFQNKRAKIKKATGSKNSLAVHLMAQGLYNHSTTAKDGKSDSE
Description: (§1) The transcriptional activity of Engrailed is evaluated as described by Montesinos et al. (J. Neurosci., 21, 3350-9, 2001), by measuring the expression of the luciferase reporter gene placed in the plasmid pMAP-luc under the control of a promoter that is a target for Engrailed, the MAP1B (microtubule-associated protein 1B) promoter.
(§2) Cells of the neuroepithelial line CHP 100 (Schlesinger et al, Cancer Res. 36, […], 1976) are cultured in RPMI 1640 (Life Technologies, Gaithersburg, Md.) supplemented with 16 mM glucose, 15% fetal calf serum, 5 U/ml of penicillin and 5 μg/ml of streptomycin, and cotransfected by electroporation with pMAP-luc and one of the following vectors:
(§3) pCL9mEn2 (Mainguy et al., Natural Biotechnol. 18: 746-749, 2000) which contains the sequence encoding the whole chick Engrailed-2 protein, under the control of the CMV promoter;
(§4) The electroporation is carried out with a maximum of 10 μg of plasmid DNA (2 μg of reporter plasmid pMAP-luc+variable amounts of En2 expression vector) per 8×10^5 cells in 350 μl of medium, at 1050 μF and at […]. 400 μl of medium are then added and the combination is allowed to stand for 10 min. The cells are then placed in culture, after washing, in two dishes (3.5 cm diameter).
(§5) The luciferase activity is assayed 24 hours after transfection. The cells are rinsed with PBS. Lysis buffer (20 mM Tris/H3PO4, pH 7.8, 10 mM MgCl2, 15% glycerol, 1 mM EDTA, 1% Triton-X 100, 1.25 mM ATP, 10 μg/ml luciferin) is added to the cells. After incubation at 4° C. for 30 min, the luciferase activity is measured by luminometry (Berthold Lumat LB 9501 luminometer).
The CHP100 cells are cotransfected by electroporation, as defined above, with pMAP-luc (2 μg), pCL9mEn2 or pCL9 mHDEn2C (4 μg) and 4 μg of pCS2-pep1 or pCS2-pep2.

[2] = system: MAP1B promoter; test: MAP1B promoter luciferase reporter (pMAP-luc) in CHP 100 cells, protein or peptide alone; assay type: cell-based; conditions: luciferase 24 hours after transfection
Description: as §1, §2, §3
pCL9mEn2ΔH1 (Joliot et al., Curr Biol. 8: 856-863, 1998), which contains the sequence encoding the chick Engrailed-2 protein from which amino acids 36 to 46 of the homeodomain (DNA-binding sequence) have been deleted, under the control of the CMV promoter;
(§6) pCL9 mHDEn2C, which contains the sequence encoding the chick Engrailed-2 protein from which amino acids 10 to 185 have been deleted, under the control of the CMV promoter.
as §4, §5

[3] = system: Engrailed; test: Effect of peptides on the activity of Engrailed in primary cultures of mesencephalic neurons (pMAP-luc); assay type: cell-based; conditions: primary mouse embryonic mesencephalic neurons; for effect on the activation of the MAP1B promoter in neurons: endogenous Engrailed
Description: In order to verify the functionality of peptides 1 and 2 in a physiological cellular context, the effect of these peptides was tested in primary cultures of mouse embryonic mesencephalic neurons.
Fragments of mouse mesencephalon (embryonic day 13.5) are incubated at 24° C. for 5 min in trypsin-EDTA, then washed in a phosphate buffer, pH 7.5, supplemented with 33 mM glucose (PBS) and 10% fetal calf serum, and subsequently incubated at 37° C. for 10 min in […] of DnaseI (Sigma, Saint Louis, Mo.). The cells are dissociated mechanically, washed three times with PBS, and placed in culture at a density of 200 000 cells/cm^2, in wells pre-saturated with D,L-poly-ornithine (1.5 μg/ml) and laminin (5 μg/ml). The culture medium (MMS) consists of DMEM/F12 (1/1, Life Technologies, Cergy, France), with 33 mM glucose, 2 mM glutamine, 10 mM HEPES, pH 7.4, 9 mM NaHCO^−3, 5 U/ml of penicillin and 5 μg/ml of streptomycin. Added to MSS are 0.1% of ovalbumin, 25 μg/ml of insulin, 100 μg/ml of transferrin, 20 nM of progesterone, 60 μM of putrescine and 30 nM selenium (M2OV).
The day after the cells were placed in culture, the medium, in each well, is replaced with 600 μl of MSS, without penicillin or streptomycin. 100 μl of the transfection mixture comprising pMAP-luc (0.5 μg) and 0.5 μg of pCS2-pep1 or pCS2-pep2, and 1 mg/ml of Lipofectamine 2000 (Invitrogen) in OPTI-MEM medium (qs 100 μl), mixed beforehand for 20 min at 24° C., are added to each well. The cells are then incubated at 37° C. for 2 h 30 min. The medium is then replaced with M20V.

[4] = target: T2, HDEn2C (chick Engrailed-2 protein from which amino acids 10 to 185 have been deleted) (Gallus gallus, UniProt Q05917, DEL10-185); test: Effect of peptides on activation of the MAP1B promoter by HDEn2C (Engrailed homeodomain) in CHP100 cells (luciferase); assay type: cell-based; conditions: HDEn2C + peptide cotransfected
T2 construct: expressed in transfected cells; host or cells: CHP100 neuroepithelial cell line, electroporated with pCL9 mHDEn2C
T2 sequence (Q05917 with tags, fused parts or gaps DEL10-185): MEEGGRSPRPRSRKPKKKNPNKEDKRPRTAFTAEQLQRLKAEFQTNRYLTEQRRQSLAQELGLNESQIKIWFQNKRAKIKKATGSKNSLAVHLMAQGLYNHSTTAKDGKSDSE
Description: as §1, §2, §6
as §4, with “The cells are then placed in culture, after washing, in two dishes (3.5 cm diameter).” left out
The luciferase activity is assayed 24 hours after transfection. […] After incubation at 4° C. for 30 min, the luciferase activity is measured by luminometry (Berthold Lumat LB 9501 luminometer). […]

[5] = system: Engrailed; test: In vivo effect on the transcriptional activity of Engrailed, pMAP-lacZ β-galactosidase reporter in the neural tube of chick embryos; conditions: chick embryo neural tube HH8-HH10, electroporation, 24 h
Description: The effect of pep1 or pep2 on the transcriptional activity of Engrailed was evaluated by measuring the expression of the β-galactosidase reporter gene placed in the plasmid pMAP-lacZ (described by Montesinos et al., 2001, mentioned above) under the control of the MAP1B promoter, in the neural tube of chick embryos at the HH8-HH10 stage.
The vectors pCS2-pep1 or pCS2-pep2, and also the vector pMAP-lacZ vector (each vector is used at a concentration of 1 μg/μl), were introduced by electroporation into the neural tube of chick embryos at the HH8-HH10 stage in accordance with the protocol of Muramatsu et al. (1997), with a BTX ECM 830 electroporator (4 pulses of 25 V and 50 msec) (Genetronics, San Diego, Calif.). The vectors were injected into the neural tube using a micropipette.

effect on the activation of MAP1B by Engrailed (in words) [1]: does not modify
Molecule: KVWDIRYTTPHA [aOTX2, reference compound]

Molecule: HOXA5: another homeodomain protein
activation of the MAP1B promoter by the protein or peptide alone [2]: activated

effect on the activation of MAP1B by the HDEn2C peptide [4]: increases the activation
Molecule: WSWNEEVWFPFT [Peptide 2]
activating effect compared with peptide 1 in neurons [3]: greater than that of peptide 1 | effect on the activation of the MAP1B promoter in neurons [3]: increased | activation of the MAP1B promoter by the protein or peptide alone [2]: no effect | effect on the activation of the MAP1B promoter in vivo (β-galactosidase) [5]: increases the activation | effect on the activation of MAP1B by Engrailed (in words) [1]: inhibitor; also recorded: inhibitory effect

Molecule: SWWETQLIASSG [Peptide 1]
effect on the activation of the MAP1B promoter in neurons [3]: increased | effect on the activation of MAP1B by the HDEn2C peptide [4]: greatly increased | activation of the MAP1B promoter by the protein or peptide alone [2]: no action | effect on the activation of the MAP1B promoter in vivo (β-galactosidase) [5]: increased | effect on the activation of MAP1B by Engrailed (in words) [1]: activating effect | increase of the activation of MAP1B by Engrailed ([1]; peptide introduced at the same time as Engrailed-2 (4 μg each vector)): approximately 50%

B1: Engrailed-2: whole chick Engrailed-2 protein expressed from pCL9mEn2 under the CMV promoter (protein)
chain: MEEGGRSPREEAAEPQESGGDAEPGGGRRALLLPPGDPPHPHPHPHRITNFFIDNILRPEFGRRKEAGGTAGEPRRPGAESRRSPAAAAPAPGAPVPGGGGGGGGGSPGRGEGGPAALALHGAAKKGGDPAALEAALKARGLSGAELSVSSDSDSSQAGSNAGNQPMLWPAWVYCTRYSDRPSSGPRSRKPKKKNPNKEDKRPRTAFTAEQLQRLKAEFQTNRYLTEQRRQSLAQELGLNESQIKIWFQNKRAKIKKATGSKNSLAVHLMAQGLYNHSTTAKDGKSDSE
activation of the MAP1B promoter by the protein or peptide alone [2]: capable of activating

— patent US20090131320A1, “PEPTIDES MODULATING THE ACTIVITY OF THE ENGRAILED TRANSCRIPTION FACTOR” (Centre National De La Recherche Scient., priority 2003, published 2009)
